{"source": "patent US4130647A", "about": "“Methods for treating congestive heart failure and ischemic heart disease” (priority 1977, dated 1978)", "key": {"[1]": {"system": "patients with congestive heart failure", "assay": "Dose-finding of oral trimazosin in congestive heart failure (Example 2)", "type": "in vivo, human", "settings": "for Change in Heart Rate at Peak / Change in Systolic Pressure at Peak / Time to Peak Effect: individual patients", "procedure": "Studies were performed in male patients with clinical and radiographic evidence of congestive heart failure due to ischemic or primary cardiomyopathy. To be eligible for the study patients had to have supine systolic blood pressure of at least 100 mm. Hg. and a supine resting cardiac index below 2.5 L/min./m^2, as measured by the non-invasive carbon dioxide rebreathing method [Franciosa, et al., J. Lab. Clin. Med., 88, 662 (1976) and Franciosa, et al., Circulation, 55, 449 (1977)]. Six patients met these criteria and were selected for the study.\nAfter obtaining written informed consent, patients were entered into a 2 day dose finding period during which single daily doses of trimazosin were given and blood pressure and heart rate monitored for 4 hours. On day one 100 mg. was given; if no response or side effects occurred, 200 mg. was given the next day. For purposes of this study a response was defined as a fall in supine blood pressure to a level equal to 0.2 × control systolic pressure +76 mm. Hg. This formula was arbitrarily chosen so that patients with control systolic blood pressure as low as 100 mm. Hg. would be included, and their pressures could be reduced to 96 mm. Hg. Upon completion to the dose finding period, no trimazosin was given for the next 24 hours to allow for washout of previous doses. After this, hemodynamic studies were performed employing the predetermined doses; if 200 mg. of trimazosin was ineffective, 300 mg. was given for hemodynamic studies."}, "[2]": {"assay": "clinical", "settings": "human, po"}, "[3]": {"system": "patients with chronic left sided congestive heart failure", "assay": "Improvement of symptoms and roentgenographic pulmonary venous congestion, trimazosin (Example 3)", "type": "in vivo, human", "text": "After baseline measurements, all 16 patients received one capsule of single-blind placebo three times daily for two weeks. The patients then received in a double-blind, randomized study trimazosin or placebo for six weeks. Eight patients received one placebo capsule three times daily for weeks one and two, two placebo capsules three times daily for weeks three and four, and three placebo capsules three times daily for weeks five and six of the double-blind period. Seven patients received one 50 mg. trimazosin capsule three times daily for weeks one and two, two 50 mg. trimazosin capsules three times daily for weeks three and four, and three 50 mg. trimazosin capsules three times daily for weeks five and six of the double-blind period. One patient (patient number five on trimazosin) received one 50 mg. trimazosin capsule three times daily for 32 days. Their trimazosin dose was not increased after two weeks of this dose because their standing systolic blood pressure was 104/70 mm. Hg.\nThe patients were seen by one of the investigators, questioned for symptoms, and given a physical examination in the baseline period, at the end of two weeks of single-blind placebo, and at the end of weeks one, two, three, four, five, and six on double-blind medication. […]\nThe data listed in Tables 1-4 were analyzed using Student's t test for independent means. […]"}, "[4]": {"system": "forearm veins of patients with congestive heart failure", "assay": "Forearm venous capacitance by occlusion plethysmography after trimazosin (Example 2)", "type": "in vivo, human", "procedure": "On the day of hemodynamic studies, diuretics and other vasodilators were withheld but maintenance digitalis doses were given in order to obtain a reasonably steady hemodynamic state. Procainamide was given to the one patient who had been taking it chronically. Right heart catheterization was performed using a triple lumen Swan-Ganz catheter which was inserted percutaneously via an antecubital or femoral vein and positioned with its tip in the pulmonary artery and the proximal lumen in the right atrium [Swan, et al,. N. Engl. J. Med., 283, 447 (1970)]. A brachial artery was cannulated with a short teflon catheter inserted over an 18-guage thin walled needle. Catheters were connected to P23Db Statham pressure transducers and pressures recorded on a Hewlett-Packard multichannel physiological recorder. Transducers were positioned at the mid-chest level with the patient supine, and all measurements were made in this position. Heart rate was monitored from the electrocardiogram. Cardiac outputs were measured by the dye-dilution method using indocyanine green injected into the pulmonary artery and sampled from the brachial artery through a Gilford densitometer connected to the recorder. Forearm venous capacitance was measured by occlusion plethysmography employing a Whitney mercury-in-rubber resistance guage [Cohen, et al., Clin. Sci., 30, 267 (1966) and Mason, et al., Circulation, 32, 756 (1965)]. For this determination, the forearm was elevated and suspended in a cradle. The venous occluding cuff was inflated to 30 mm. Hg. and forearm girth allowed to equilibrate over 2-3 minutes. The change in forearm girth at this point was taken as a measure of venous capacitance.\nHemodynamic measurements were made before and at hourly intervals for 4 hours after administration of trimazosin. […] Systemic vascular resistance was calculated as the difference between means systemic arterial and right atrial pressures divided by cardiac output. Pulmonary vascular resistance was calculated as mean pulmonary arterial pressure divided by cardiac output. […]"}, "[5]": {"system": "patients with chronic left sided congestive heart failure", "assay": "Adverse effects of trimazosin (Example 3)", "type": "in vivo, human", "procedure": "The patients then received in a double-blind, randomized study trimazosin or placebo for six weeks. Eight patients received one placebo capsule three times daily for weeks one and two, two placebo capsules three times daily for weeks three and four, and three placebo capsules three times daily for weeks five and six of the double-blind period. Seven patients received one 50 mg. trimazosin capsule three times daily for weeks one and two, two 50 mg. trimazosin capsules three times daily for weeks three and four, and three 50 mg. trimazosin capsules three times daily for weeks five and six of the double-blind period. One patient (patient number five on trimazosin) received one 50 mg. trimazosin capsule three times daily for 32 days. […] The patients were seen by one of the investigators, questioned for symptoms, and given a physical examination in the baseline period, at the end of two weeks of single-blind placebo, and at the end of weeks one, two, three, four, five, and six on double-blind medication. A standard 12-lead electrocardiogram and PA and lateral chest roentgenograms were taken in the baseline period, at the end of two weeks of single-blind placebo, and at the end of three weeks and six weeks on double-blind medication."}, "[6]": {"settings": "200 mg. trimazosin oral, mean of 4, ns"}, "[7]": {"settings": "200 mg. trimazosin, patient no. 4"}}, "note": "Where “and” joins values, the source holds several entries; their conditions need not be identical. Equal values may be shown once.", "data": [{"smiles": "COc1cc2c(N)nc(N3CCN(C(=O)OCC(C)(C)O)CC3)nc2c(OC)c1OC", "note": "[trimazosin, 2-hydroxy-2-methylpropyl 4-(4-amino-6,7,8-trimethoxy-2-quinazolinyl)-1-piperazinecarboxylate]", "values": [{"measurement": "Change in Heart Rate at Peak", "setting": "[1]; 100 mg. trimazosin oral", "result": "-4 beats/min. and -2 beats/min. and -15 beats/min. and -10 beats/min."}, {"measurement": "Change in Systolic Pressure at Peak", "setting": "[1]; 100 mg. trimazosin oral", "result": "-4 mm.Hg. and -22 mm.Hg. and -8 mm.Hg. and -16 mm.Hg. and -9 mm.Hg."}, {"measurement": "Time to Peak Effect", "setting": "[1]; 100 mg. trimazosin oral", "result": "240 min and 120 min and 180 min and 90 min"}, {"measurement": "Time to Peak Effect, mean", "setting": "[1]; 100 mg. trimazosin oral, mean of 6", "result": 155.0, "unit": "min"}, {"measurement": "Change in Systolic Pressure at Peak, mean", "setting": "[1]; 100 mg. trimazosin oral, mean of 6, P <0.02", "result": -10.5, "unit": "mm.Hg."}, {"measurement": "Change in Heart Rate at Peak, mean", "setting": "[1]; 100 mg. trimazosin oral, mean of 6, P <0.05", "result": -6.5, "unit": "beats/min."}, {"measurement": "desired hypotensive response", "setting": "[1]; 100 mg. trimazosin, of six patients", "result": "2 patients (nos. 5 and 6)"}, {"measurement": "Change in Heart Rate at Peak", "setting": "[1]; 200 mg. trimazosin oral", "result": "15 beats/min. and -3 beats/min. and 2 beats/min. and -1 beats/min."}, {"measurement": "Change in Systolic Pressure at Peak", "setting": "[1]; 200 mg. trimazosin oral", "result": "-21 mm.Hg. and -20 mm.Hg. and -8 mm.Hg. and -1 mm.Hg."}, {"measurement": "Time to Peak Effect", "setting": "[1]; 200 mg. trimazosin oral", "result": "240 min and 90 min and 210 min and 180 min"}, {"measurement": "Time to Peak Effect, mean", "setting": "[1]; 200 mg. trimazosin oral, mean of 4", "result": 180.0, "unit": "min"}, {"measurement": "Change in Heart Rate at Peak, mean", "setting": "[1]; [6]", "result": 3.3, "unit": "beats/min."}, {"measurement": "Change in Systolic Pressure at Peak, mean", "setting": "[1]; [6]", "result": -12.5, "unit": "mm.Hg."}, {"measurement": "systolic pressure lowered to the desired goal", "setting": "[1]; 200 mg. trimazosin, of four patients", "result": "2 patients (nos. 1 and 2)"}, {"measurement": "desired reduction in systolic pressure and side effects", "setting": "[1]; 200 mg. trimazosin, patient no. 3", "result": "neither the desired reduction in systolic pressure nor side effects"}, {"measurement": "side effect", "setting": "[1]; [7]", "result": "orthostatic light-headedness"}, {"measurement": "supine systolic pressure", "setting": "[1]; [7]", "result": "essentially no fall"}, {"measurement": "standing systolic pressure", "setting": "[1]; 200 mg. trimazosin, patient no. 4, fell from 103", "result": 91, "unit": "mm. Hg."}, {"measurement": "half-life", "setting": "[2]; in vivo", "result": "180 to 360", "unit": "min"}, {"measurement": "Tmax", "setting": "[2]; plasma", "result": "1 to 2", "unit": "h"}, {"measurement": "disappearance of pulmonary venous congestion on chest roentgenogram", "setting": "[3]; vs. none of eight on placebo, p=0.038", "result": "Four of the eight patients"}, {"measurement": "good or excellent improvement in symptoms", "setting": "[3]; vs. one of eight on placebo, p=0.020", "result": "Six of the eight patients"}, {"measurement": "increase in forearm venous capacitance", "setting": "[4]; 2 hours after trimazosin", "result": 35, "unit": "%"}, {"measurement": "forearm venous capacitance", "setting": "[4]; 2 hours after trimazosin, before 0.83 ± 0.18", "result": "1.12 ± 0.22", "unit": "ml./100 gm."}, {"measurement": "increase in forearm venous capacitance", "setting": "[4]; one patient with normal pulmonary wedge pressure", "result": 50, "unit": "%"}, {"measurement": "adverse effects attributed to medication", "setting": "[5]; 16 patients (trimazosin or placebo)", "result": "No adverse effects attributed to medication occurred in any of the 16 patients"}, {"measurement": "adverse effects such as systemic lupus erythematosus", "setting": "[5]; in vivo", "result": "has not been associated with adverse effects such as systemic lupus erythematosus"}, {"measurement": "reflex tachycardia", "setting": "[5]; in vivo", "result": "does not produce a reflex tachycardia"}, {"measurement": "event in patient number five", "setting": "[5]; thirty-second day of trimazosin therapy", "result": "acute myocardial infarction with ventricular fibrillation"}, {"measurement": "side effects", "setting": "[5]; trimazosin 450 mg. daily", "result": "without occurrence of any side effects"}]}]}
